According to ChEMBL document CHEMBL5506047, “Impact of Combinatorial Histone Modifications on Acetyllysine Recognition by the ATAD2 and ATAD2B Bromodomains” (J Med Chem, 2024):

Columns and labels:
[1] = target: T1, ATPase family AAA domain-containing protein 2 (Homo sapiens, UniProt Q6PL18); experiment: Binding affinity to human ATAD2 BRD assessed as dissociation constant by isothermal titration calorimetry
T1 sequence (Q6PL18 whole entry): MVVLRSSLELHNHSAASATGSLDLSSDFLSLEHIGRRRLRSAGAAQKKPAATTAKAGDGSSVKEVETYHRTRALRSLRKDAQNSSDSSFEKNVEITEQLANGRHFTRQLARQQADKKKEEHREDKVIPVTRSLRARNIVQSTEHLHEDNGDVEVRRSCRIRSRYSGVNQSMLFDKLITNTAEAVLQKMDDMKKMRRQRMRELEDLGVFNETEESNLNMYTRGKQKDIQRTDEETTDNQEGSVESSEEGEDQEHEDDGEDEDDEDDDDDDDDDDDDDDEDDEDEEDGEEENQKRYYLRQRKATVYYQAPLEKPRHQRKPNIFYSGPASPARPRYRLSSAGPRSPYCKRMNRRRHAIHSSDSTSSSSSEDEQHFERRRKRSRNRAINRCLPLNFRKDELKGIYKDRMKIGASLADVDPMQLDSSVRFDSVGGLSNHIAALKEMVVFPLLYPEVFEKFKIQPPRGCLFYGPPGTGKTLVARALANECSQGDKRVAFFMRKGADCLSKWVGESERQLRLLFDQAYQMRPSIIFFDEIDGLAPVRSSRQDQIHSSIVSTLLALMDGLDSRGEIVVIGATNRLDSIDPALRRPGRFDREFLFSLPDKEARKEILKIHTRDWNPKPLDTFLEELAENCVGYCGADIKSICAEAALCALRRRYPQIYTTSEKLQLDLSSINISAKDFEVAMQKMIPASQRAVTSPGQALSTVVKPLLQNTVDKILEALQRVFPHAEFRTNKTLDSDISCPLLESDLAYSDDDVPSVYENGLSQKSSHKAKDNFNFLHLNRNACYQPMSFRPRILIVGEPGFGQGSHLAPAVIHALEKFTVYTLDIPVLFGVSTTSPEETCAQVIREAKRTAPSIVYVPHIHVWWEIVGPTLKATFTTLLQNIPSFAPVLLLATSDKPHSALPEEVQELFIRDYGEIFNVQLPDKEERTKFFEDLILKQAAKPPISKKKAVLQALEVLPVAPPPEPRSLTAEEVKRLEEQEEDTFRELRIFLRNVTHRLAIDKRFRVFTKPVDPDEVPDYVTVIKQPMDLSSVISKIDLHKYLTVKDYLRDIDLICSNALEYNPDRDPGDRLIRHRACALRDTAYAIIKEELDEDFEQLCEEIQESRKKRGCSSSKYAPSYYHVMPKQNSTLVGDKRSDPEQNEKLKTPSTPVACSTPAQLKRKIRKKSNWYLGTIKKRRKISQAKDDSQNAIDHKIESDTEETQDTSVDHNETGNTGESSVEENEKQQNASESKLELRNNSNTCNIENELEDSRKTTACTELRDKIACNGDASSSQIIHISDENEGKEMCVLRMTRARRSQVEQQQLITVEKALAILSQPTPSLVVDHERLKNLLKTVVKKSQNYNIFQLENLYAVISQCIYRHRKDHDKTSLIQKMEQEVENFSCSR

[2] = target: T2, ATPase family AAA domain-containing protein 2B (Homo sapiens, UniProt Q9ULI0); experiment: Binding affinity to human ATAD2B BRD assessed as dissociation constant by isothermal titration calorimetry
T2 sequence (Q9ULI0 whole entry): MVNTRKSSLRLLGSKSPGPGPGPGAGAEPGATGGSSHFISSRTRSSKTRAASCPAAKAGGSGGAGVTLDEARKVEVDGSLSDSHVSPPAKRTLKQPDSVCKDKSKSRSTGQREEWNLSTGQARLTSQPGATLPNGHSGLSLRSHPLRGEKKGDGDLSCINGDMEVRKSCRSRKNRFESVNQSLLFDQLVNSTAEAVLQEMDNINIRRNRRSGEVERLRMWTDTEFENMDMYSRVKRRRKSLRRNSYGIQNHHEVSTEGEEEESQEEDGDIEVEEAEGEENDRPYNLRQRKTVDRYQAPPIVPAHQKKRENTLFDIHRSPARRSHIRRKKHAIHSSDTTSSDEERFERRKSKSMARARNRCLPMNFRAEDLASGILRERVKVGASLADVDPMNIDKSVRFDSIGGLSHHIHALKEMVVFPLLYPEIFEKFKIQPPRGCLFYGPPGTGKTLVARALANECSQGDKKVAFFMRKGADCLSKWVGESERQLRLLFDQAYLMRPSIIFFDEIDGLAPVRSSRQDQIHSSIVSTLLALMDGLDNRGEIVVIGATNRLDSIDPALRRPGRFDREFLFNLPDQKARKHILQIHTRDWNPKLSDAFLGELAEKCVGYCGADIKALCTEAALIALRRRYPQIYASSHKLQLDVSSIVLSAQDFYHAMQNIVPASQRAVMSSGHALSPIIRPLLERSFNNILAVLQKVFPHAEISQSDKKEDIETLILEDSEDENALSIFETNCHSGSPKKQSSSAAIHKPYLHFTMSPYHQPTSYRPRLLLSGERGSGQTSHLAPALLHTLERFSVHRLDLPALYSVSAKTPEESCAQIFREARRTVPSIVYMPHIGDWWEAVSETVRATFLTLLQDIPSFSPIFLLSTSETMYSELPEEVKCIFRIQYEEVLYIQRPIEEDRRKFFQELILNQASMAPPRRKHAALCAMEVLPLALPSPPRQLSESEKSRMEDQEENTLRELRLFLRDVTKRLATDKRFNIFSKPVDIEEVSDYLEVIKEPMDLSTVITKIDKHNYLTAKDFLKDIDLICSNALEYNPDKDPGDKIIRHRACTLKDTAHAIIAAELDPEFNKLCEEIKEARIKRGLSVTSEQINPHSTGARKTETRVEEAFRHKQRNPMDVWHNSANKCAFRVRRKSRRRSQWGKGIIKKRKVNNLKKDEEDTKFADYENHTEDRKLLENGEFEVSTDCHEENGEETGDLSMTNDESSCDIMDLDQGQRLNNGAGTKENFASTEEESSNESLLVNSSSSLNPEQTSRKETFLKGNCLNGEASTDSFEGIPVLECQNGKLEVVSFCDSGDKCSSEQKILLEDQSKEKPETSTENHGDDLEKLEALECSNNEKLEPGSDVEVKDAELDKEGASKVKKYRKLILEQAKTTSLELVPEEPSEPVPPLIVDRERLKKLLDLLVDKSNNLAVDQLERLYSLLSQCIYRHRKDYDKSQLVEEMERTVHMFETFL

| Compound | Kd [1] | Kd [2] |
| --- | --- | --- |
| CC(=O)NCCCC[C@H](NC(=O)[C@H](CO)NC(=O)[C@H](CCCNC(=N)N)NC(=O)CNC(=O)[C@@H](N)CO)C(=O)NCC(=O)NCC(=O)N[C@@H](CCCCN)C(=O)NCC(=O)N[C@@H](CC(C)C)C(=O)NCC(=O)N[C@@H](CCCCN)C(=O)NCC(=O)NCC(=O)N[C@@H](C)C(=O)O | Not Active | Not Active |
| CC(=O)NCCCC[C@H](NC(=O)[C@H](CC(=O)O)NC(=O)[C@H](CCCNC(=N)N)NC(=O)CNC(=O)[C@@H](N)CO)C(=O)NCC(=O)NCC(=O)N[C@@H](CCCCN)C(=O)NCC(=O)N[C@@H](CC(C)C)C(=O)NCC(=O)N[C@@H](CCCCN)C(=O)NCC(=O)NCC(=O)N[C@@H](C)C(=O)O | Not Active | Not Active |
| H-AGGK(Ac)AGK(Ac)DSGKAKTK-OH | Not Active | Not Active |
| H-AGGK(Ac)AGKDSGKAKTK-OH | Not Active |  |
| H-AGGKAGKDSGKAKTK-OH | Not Active | Not Active |
| H-SGRGKTGGKARAKAKSR-OH | Not Active | Not Active |
